# Where “and” joins values, the source holds several entries; their conditions need not be identical. Equal entries are not always repeated.
# How the values were obtained:
# CLBL1 cells = assay: Annexin V apoptosis assay (flow cytometry), CLBL1; assay type: cell-based, canine; conditions: CLBL1, 100 nM, 24 hours
# [1] = Owner-assessed quality of life questionnaire; assay type: in vivo, dogs
# Description: A tool to assess quality of life in dogs with cancer during treatment has been previously published. This was used to assess owner perceived changes in dogs undergoing KPT-335 treatment during both the dose escalation and dose expansion studies. An overall quality of life (QOL) score was created based on answers to the questions on the quality of life questionnaire. The scores from each question were summed resulting in an overall quality of life score which could range from 23 to 115. Trends in Quality of Life (QOL) during the study were examined using linear mixed models containing fixed effects of time and an autoregressive correlation structure for the random errors. Wald tests were used to test for a significant change in QOL with degrees of freedom calculated using the Kenward-Roger method. Measurements obtained after 90 days were not included in the analysis for the dose escalation study and measurements after 70 days were not included in the analysis of the dose expansion data due to few data points after those time points.
# Jurkat cells = assay: MTS cell viability assay, Jurkat; assay type: cell-based, human; conditions: Homo sapiens, Jurkat, 72 hours, read-out: IC50 (± S.D.), Jurkat
# Protocol: Cryopreserved tumor cells obtained from sterile lymph node biopsy samples from dogs with diffuse large B cell lymphoma (DLBCL) were cultured with 100 ng/mL of megaCD40L (Enzo Life Science, Plymouth Meeting, PA) as previously described, [27]. The human T-cell leukemia cell line, Jurkat, was from the American Type Culture Collection (ATCC, Manassas, VA) and cultured in RPMI1640 medium (Gibco/BRL, Grand Island, NY) containing 10% fetal bovine serum (FBS; Atlas Biologicals, Fort Collins, CO), 2-mercaptoethanol (Gibco/BRL), HEPES, L-glutamine, sodium pyruvate (Mediatech Inc., Manassas, VA), non-essential amino acids (Sigma Aldrich, St. Louis, MO), and Primocin (Invivogen, San Diego, CA). The canine DLBCL cell line CLBL1 obtained from Dr. Barbara Rütgen (University of Vienna, Austria), [29] and human DLBCL cell lines OCI-Ly3 [30], [31] and OCI-Ly10 [32] obtained from Dr. Anne Novak (Mayo Clinic Cancer Center, Rochester, MN) were cultured in complete Iscove’s Modified Dulbecco’s medium (IMDM) containing 20% FBS, L-glutamine, and Primocin. All cells were maintained at 37°C in a humidified 5% CO2 atmosphere. The following additional canine tumor cell lines were used to evaluate response to SINE compounds: C2, mast cell tumor line provided by Dr. George Caughey, UCSF, San Francisco, CA [33]; OSA16, osteosarcoma cell line, provided by Dr. Jaime Modiano, UM, Minneapolis, MN [34]; and 323610-3, malignant melanoma cell line, provided by Dr. Michael Kent, UCD, Davis, CA [35]. […]
# Cell viability for lymphoid lines was determined by the MTS (3-(4, 5-dimethylthiazol-2-yl)-5-(3-carboxymethoxyphenyl)-2-(4-sulfophenyl)-2H-tetrazolium) assay using CellTiter 96® AQueous One Solution Cell Proliferation Assay Kit (Promega, Madison, WI). […] After 72 hours, 20 µL of MTS solution was added to each well and cells were incubated for another 4 hours before measuring absorbance at 490 nm using a Wallac Victor 1420 Multilabel Counter (Perkin Elmer, Waltham, MA). The IC50 of SINE was calculated using Prism 6 software (GraphPad Software, Inc., La Jolla, CA).
# [2] = system: primary canine DLBCL cells; assay: Annexin V apoptosis assay (flow cytometry), primary canine DLBCL; assay type: cell-based; conditions: primary canine DLBCL (sample #1), 100 nM, 24 hours
# Protocol: Jurkat cells and primary canine DLBCL cells were cultured for 24 hours in the presence of 100 nM KPT-335 or dimethyl sulfoxide (DMSO). Cells were stained with Annexin V (eBiosciences, San Diego, CA) according to the manufacturer’s instruction. Flow cytometry was performed using a BD LSRII flow cytometer (BD Immunocytometry Systems, San Jose, CA) and results were analyzed using FlowJo software (Tree Star, Ashland, OR).
# [3] = system: dogs with spontaneous cancer (NHL, mast cell tumor, osteosarcoma); assay: Phase I dose escalation study, tumor response; assay type: in vivo
# Protocol: This study was a Phase I dose escalating, open label assessment of the safety and biologic activity of KPT-335 in client owned dogs with spontaneous malignancies. Assessment of clinical toxicities and tumor response was performed at each visit. Dogs were evaluated for hematologic and biochemical toxicities every 7 days with routine bloodwork. The initial dose of 1 mg/kg orally twice per week (Monday/Thursday or Tuesday/Friday) was based on previous data from normal laboratory dogs (data not shown) and dose escalation was set at 0.25 mg/kg increments in cohorts of 3 until dose limiting toxicity (DLT) was identified. The DLT was considered to be any grade 3 or 4 hematologic or non-hematologic toxicity based on the established VCOG-CTCAE criteria. […] Disease progression or signs and symptoms definitely related to disease were not considered adverse events (AEs). The maximum tolerated dose (MTD) was considered to be one dose below that at which DLT occurred.
# Tumor assessments were completed prior to study entry, and days 7, 14, 21, and 28. For dogs that continued beyond 4 weeks, response assessments were performed every 2 weeks thereafter, or at the time of suspected tumor progression. Responses were assessed by the investigator according to pre-defined protocol criteria. The response in dogs with assessable disease was performed by clinical examination, ultrasonography, or thoracic radiography. Many lesions were not amenable for quantitative radiographic imaging, but were followed either by serial clinical examination (superficial lesions; palpable lymph nodes) or by ultrasonography (abdominal lymph nodes). Thoracic lesions were assessed by thoracic radiography.
# The response in dogs with measurable disease was judged by the investigator on the basis of Response Evaluation Criteria for Peripheral Nodal Lymphoma in dogs (v1.0). A complete response (CR) was defined as disappearance of all disease on two measurements separated by a minimum period of 3 weeks. A partial response (PR) was defined as greater than 30% reduction in the sum of the longest diameter of the target lesions documented by two assessments separated by at least 3 weeks. An increase of >20% in the size of all measurable tumor areas as measured by the sum of longest diameters of the target lesions taken as reference the smallest sum since initiation of therapy, or the appearance of any new lesion(s) would qualify as progressive disease (PD). […] Dogs who had no evidence of tumor progression and who had not experienced any unacceptable toxicity were eligible for extended treatment cycles. Dose escalation from twice per week administration to three times per week administration in an individual dog was permitted if the dog was tolerating therapy.
smiles,measurement,setting,value
O=C(/C=C\n1cnc(-c2cc(C(F)(F)F)cc(C(F)(F)F)c2)n1)NNc1ccccn1 [KPT-335],apoptotic cells (Annexin V+ cells) compared to mock treated cells,CLBL1 cells,increased apoptotic cells
same,overall quality of life,"[1]; dose escalation study, p = 0.64",did not change significantly
same,overall quality of life,"[1]; dose expansion study, p = 0.47",did not change significantly
same,IC50,Jurkat cells,0.3 nM
same,apoptotic cells (Annexin V+ cells) compared to mock treated cells,[2],increased apoptotic cells
same,"clinical benefit (CB: PR or SD >4 weeks), dogs with NHL",[3],9/14
same,"clinical benefit, dogs with NHL",[3],64%
same,"duration of PR, individual dogs",[3],71 days and 246 days
same,"median TTP, responding dogs with NHL",[3],66 days
same,"median duration of treatment, dogs with NHL",[3],10 weeks
same,"range of duration of treatment, dogs with NHL",[3],5–35 weeks
same,median duration of SD,[3]; 8 dogs with SD,58.5 days
same,range of duration of SD,[3]; 8 dogs with SD,28 to 84 days
same,"TTP range, all dogs",[3]; 17 dogs,14 to 246 days
same,dogs with PD in the first 4 weeks of therapy,[3]; 17 dogs,7
same,"median TTP, all dogs",[3]; 17 dogs,35 days
same,"stable disease (SD), number of dogs with NHL",[3]; SD for greater than 28 days,7
same,"stable disease (SD), number of dogs",[3]; all 17 dogs,8
same,dose at which biologic activity was observed,[3]; lowest dose level,1 mg/kg
